In the NIST ThermoML archive (doi:10.1021/je400082c):
Numbers after ± are expanded uncertainties.

Conditions: Liquid

CCC(O)CO (centres undefined) [1,2-butanediol]
Conditions | vapor or sublimation pressure [kPa]
372.06 K | 1.89 ± 0.08
382.61 K | 3.33 ± 0.08
390.52 K | 4.96 ± 0.09
395.55 K | 6.36 ± 0.09
399.56 K | 7.66 ± 0.09
402.61 K | 8.81 ± 0.09
405.13 K | 9.9 ± 0.09
405.42 K | 10 ± 0.1
408.5 K | 11.39 ± 0.09
413.34 K | 14.09 ± 0.09
418.29 K | 17.27 ± 0.1
421.49 K | 19.63 ± 0.1
424.91 K | 22.54 ± 0.1
427.57 K | 25.06 ± 0.11
429.92 K | 27.24 ± 0.11
432.76 K | 30.39 ± 0.12
435.37 K | 33.36 ± 0.12
438.52 K | 37.3 ± 0.13
439.97 K | 39.3 ± 0.13
441.78 K | 41.9 ± 0.13
443.55 K | 44.75 ± 0.14

OCCO [1,2-ethanediol]
Conditions | vapor or sublimation pressure [kPa]
386.15 K | 3.92 ± 0.08
389.12 K | 4.51 ± 0.08
389.95 K | 4.78 ± 0.08
390.75 K | 4.89 ± 0.08
395.25 K | 6.08 ± 0.09
400.78 K | 7.87 ± 0.09
402.15 K | 8.37 ± 0.09
405.85 K | 9.85 ± 0.09
406.09 K | 10 ± 0.095
406.25 K | 10.02 ± 0.09
409.3 K | 11.42 ± 0.09
411.15 K | 12.41 ± 0.09
411.85 K | 12.85 ± 0.09
413.85 K | 13.85 ± 0.09
416.45 K | 15.37 ± 0.09

CC(O)CO (centres undefined) [1,2-propanediol]
Conditions | vapor or sublimation pressure [kPa]
398.23 K, Ebulliometric method (Recirculating still) | 10 ± 0.095

CC(O)CCO (centres undefined) [1,3-butanediol]
Conditions | vapor or sublimation pressure [kPa]
387.75 K | 2.43 ± 0.08
395.13 K | 3.6 ± 0.08
402.05 K | 5.03 ± 0.08
406.61 K | 6.26 ± 0.09
411.11 K | 7.72 ± 0.09
413.41 K | 8.54 ± 0.09
416.91 K | 10 ± 0.095
418.03 K | 10.48 ± 0.09
420.85 K | 11.87 ± 0.09
422.04 K | 12.54 ± 0.09
425.8 K | 14.63 ± 0.09
427.74 K | 15.84 ± 0.09
429.75 K | 17.09 ± 0.09
433.71 K | 19.96 ± 0.09
436.29 K | 22.24 ± 0.1
439.65 K | 25.3 ± 0.1
442.45 K | 28.15 ± 0.1
444.75 K | 30.78 ± 0.1
447.01 K | 33.36 ± 0.1
449.8 K | 36.78 ± 0.11
451.7 K | 39.45 ± 0.11
453.1 K | 41.39 ± 0.11
